The target of one assay is CSNK1D (Homo sapiens (Human), UniProt P48730). In words: CSNK1D Assay (ADP-Glo, 1 μM ATP). Format: biochemical. The settings on record: median, read-out: CSNK1D IC50 [mol/l] (median). As for the experimental part:
CSNK1D-inhibitory activity of compounds of the present invention in presence of 1 μM adenosine-tri-phosphate (ATP) was quantified employing the CSNK1 D assay as described in the following paragraphs. In essence, the enzyme activity is measured by quantification of the adenosine-di-phosphate (ADP), which is generated as a co-product of the enzyme reaction, via the “ADP-Glo™ Kinase Assay” kit from the company Promega. This detection system works as follows: In a first step the ATP not consumed in the kinase reaction is quantitatively converted to cAMP employing an adenylate cyclase (“ADP-Glo-reagent”), then the adenylate cyclase is stopped and the ADP generated in the kinase reaction converted to ATP which generates in a luciferase-based reaction a glow-luminescence signal (“Kinase Detection Reagent”).
As substrate for the kinase reaction the biotinylated peptide Btn-Ahx-[…] (C-terminus in amide form) was used which can be purchased e.g. from the company Biosyntan (Berlin-Buch, Germany).
For the assay 50 nl of a 100 fold concentrated solution of the test compound in DMSO was pipetted into a white 1536-well microtiter plate (Greiner Bio-One, Frickenhausen, Germany), 2 μL of a solution of CSNK1D in aqueous assay buffer [50 mM HEPES pH 7.5, 10% (v/v) glycerol, 10 mM MgCl2, 50 mM NaCl, 1 mM dithiothreitol, 0.01% (w/v) bovine serum albumin, 0.01% (v/v) Triton X-100] were added and the mixture was incubated for 15 min at 22° C. to allow pre-binding of the test compounds to the enzyme before the start of the kinase reaction. […] The concentration of CSNK1D was adjusted depending of the activity of the enzyme lot and was chosen appropriate to have the assay in the linear range, a typical concentration is about 0.5 ng/μL. The reaction was stopped by the addition of 2.5 μL of “ADP-Glo-reagent” (1:1.5 fold diluted with water) and the resulting mixture was incubated at 22° C. for 1 h to convert the ATP not consumed in the kinase reaction completely […]. Subsequently 2.5 μL of the “kinase detection reagent” (1.2 fold more concentrated than recommended by the producer) were added, the resulting mixture was incubated at 22° C. for 1 h and then the luminescence measured with a suitable measurement instrument (e.g. Viewlux™ from Perkin-Elmer). The amount of emitted light was taken as a measure for the amount of ADP generated and thereby for the activity of the CSNK1D.
In general terms: ADP-Glo turns the ADP formed in a reaction into a luminescent signal.

A further assay addresses CSNK1A1 (Homo sapiens (Human), UniProt P48729). In words: CSNK1A1 Assay 2 (ADP-Glo, 1 μM ATP). The settings on record: median, read-out: CSNK1A1 Assay 2 IC50 [mol/l] (median). Format: biochemical. As for the experimental part:
CSNK1A1-inhibitory activity of compounds of the present invention in presence of 1 μM adenosine-tri-phosphate (ATP) was quantified employing the CSNK1A1 assay as described in the following paragraphs. In essence, the enzyme activity is measured by quantification of the adenosine-di-phosphate (ADP), which is generated as a co-product of the enzyme reaction, via the “ADP-Glo™ Kinase Assay” kit from the company Promega. This detection system works as follows: In a first step the ATP not consumed in the kinase reaction is quantitatively converted to cAMP employing an adenylate cyclase (“ADP-Glo-reagent”), then the adenylate cyclase is stopped and the ADP generated in the kinase reaction converted to ATP which generates in a luciferase-based reaction a glow-luminescence signal (“Kinase Detection Reagent”).
As substrate for the kinase reaction the biotinylated peptide biotin-Ahx-KRRRAL-pS-VASLPGL (C-terminus in amide form) was used which can be purchased e.g. from the company Biosyntan (Berlin-Buch, Germany).
For the assay 50 nl of a 100 fold concentrated solution of the test compound in DMSO was pipetted into a white 1536-well microtiter plate (Greiner Bio-One, Frickenhausen, Germany), 2 μL of a solution of CSNK1A1 in aqueous assay buffer [50 mM HEPES pH 7.5, 10% (v/v) glycerol, 10 mM MgCl2, 50 mM NaCl, 1 mM dithiothreitol, 0.01% (w/v) bovine serum albumin, 0.01% (v/v) Triton X-100] were added and the mixture was incubated for 15 min at 22° C. to allow pre-binding of the test compounds to the enzyme before the start of the kinase reaction. […] The concentration of CSNK1A1 was adjusted depending of the activity of the enzyme lot and was chosen appropriate to have the assay in the linear range, a typical concentrations are about 0.0375 ng/μL. The reaction was stopped by the addition of 2.5 μL of “ADP-Glo-reagent” (1:1.5 fold diluted with water) and the resulting mixture was incubated at 22° C. for 1 h to convert the ATP not consumed in the kinase reaction completely […]. Subsequently 2.5 μL of the “kinase detection reagent” (1.2 fold more concentrated than recommended by the producer) were added, the resulting mixture was incubated at 22° C. for 1 h and then the luminescence measured with a suitable measurement instrument (e.g. Viewlux™ from Perkin-Elmer). The amount of emitted light was taken as a measure for the amount of ADP generated and thereby for the activity of the CSNK1A1.

Sequence of CSNK1A1 (P48729 whole entry): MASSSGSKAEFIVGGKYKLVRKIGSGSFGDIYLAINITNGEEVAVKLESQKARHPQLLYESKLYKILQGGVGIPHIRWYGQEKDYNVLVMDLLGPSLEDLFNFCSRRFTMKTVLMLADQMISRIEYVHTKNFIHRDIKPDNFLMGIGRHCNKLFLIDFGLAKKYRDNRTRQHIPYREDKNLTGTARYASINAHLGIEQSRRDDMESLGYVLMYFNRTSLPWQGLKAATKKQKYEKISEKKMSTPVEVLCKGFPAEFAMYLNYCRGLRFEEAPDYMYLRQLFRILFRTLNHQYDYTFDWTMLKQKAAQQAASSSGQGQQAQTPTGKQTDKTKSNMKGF
Sequence of CSNK1D (P48730 whole entry): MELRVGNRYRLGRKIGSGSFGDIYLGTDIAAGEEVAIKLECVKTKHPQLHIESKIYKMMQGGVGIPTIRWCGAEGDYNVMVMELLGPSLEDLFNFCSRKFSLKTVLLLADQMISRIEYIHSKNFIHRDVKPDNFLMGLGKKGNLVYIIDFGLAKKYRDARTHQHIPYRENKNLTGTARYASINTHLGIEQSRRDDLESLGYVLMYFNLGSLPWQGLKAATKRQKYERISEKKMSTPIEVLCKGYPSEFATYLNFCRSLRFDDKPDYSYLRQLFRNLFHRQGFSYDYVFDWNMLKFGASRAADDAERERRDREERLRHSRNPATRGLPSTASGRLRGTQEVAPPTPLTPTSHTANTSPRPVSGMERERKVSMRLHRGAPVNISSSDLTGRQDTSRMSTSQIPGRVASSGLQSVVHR

With `Cc1cn(C)c(=O)c2c(-c3ccccc3)c(-c3ccnc(NC(=O)C(CC(F)F)c4ccc(F)cc4)c3)[nH]c12` (racemic) [Example 40, N-[4-(5,7-dimethyl-4-oxo-3-phenyl-4,5-dihydro-1H-pyrrolo[3,2-c]pyridin-2-yl)pyridin-2-yl]-4,4-difluoro-2-(4-fluorophenyl)butanamide], the IC50 on CSNK1D and at CSNK1A1 was 4 nM each time.

As for `CN1C(=O)c2c([nH]c(-c3ccnc(NC(=O)C(CC(F)F)c4ccc(F)cc4)c3)c2-c2ccccc2)CC12CCC2` (single isomer, unassigned; (+)) [Example 51, (+)-4,4-difluoro-2-(4-fluorophenyl)-N-[4-(5′-methyl-4′-oxo-3′-phenyl-1′,4′,5′,7′-tetrahydrospiro-[cyclobutane-1,6′-pyrrolo[3,2-c]pyridin]-2′-yl)pyridin-2-yl]butanamide], the IC50 is 2.4 nM on CSNK1D and 1.8 nM at CSNK1A1.

Consider `CN1CCc2[nH]c(-c3ccnc(NC(=O)C(CC(F)F)c4ccc(F)cc4)c3)c(-c3ccccc3)c2C1=O` (racemic) [Example 2, 4,4-difluoro-2-(4-fluorophenyl)-N-[4-(5-methyl-4-oxo-3-phenyl-4,5,6,7-tetrahydro-1H-pyrrolo[3,2-c]pyridin-2-yl)pyridin-2-yl]butanamide], for which the IC50 at CSNK1D came to 3.3 nM; on CSNK1A1 it was 1.7 nM.

`CC1CN(C)C(=O)c2c1[nH]c(-c1ccnc(NC(=O)C(C)c3ccc(F)cc3)c1)c2-c1ccccc1` (stereo not drawn) [Example 37, N-{4-[5,7-dimethyl-4-oxo-3-phenyl-4,5,6,7-tetrahydro-1H-pyrrolo[3,2-c]pyridin-2-yl]pyridin-2-yl}-2-(4-fluorophenyl)propanamide]: the IC50 on CSNK1D is 4.1 nM; on CSNK1A1, 3.1 nM.

Consider `CC1(C)CNC(=O)c2c1[nH]c(-c1ccnc(NC(=O)C(CC(F)F)c3ccc(F)cc3)c1)c2-c1ccccc1` (single isomer, unassigned) [Example 45, N-[4-(7,7-dimethyl-4-oxo-3-phenyl-4,5,6,7-tetrahydro-1H-pyrrolo[3,2-c]pyridin-2-yl)pyridin-2-yl]-4,4-difluoro-2-(4-fluorophenyl)butanamide], for which the IC50 on CSNK1D stood at 2.7 nM; at CSNK1A1, 2 nM.

Turning to `CC(C(=O)Nc1cc(-c2[nH]c3c(c2-c2ccccc2)C(=O)N(C)C2(CCC2)C3)ccn1)c1ccc(F)cc1` (single isomer, unassigned; (+)) [Example 54, (+)-2-(4-fluorophenyl)-N-[4-(5′-methyl-4′-oxo-3′-phenyl-1′,4′,5′,7′-tetrahydrospiro[cyclobutane-1,6′-pyrrolo[3,2-c]pyridin]-2′-yl)pyridin-2-yl]propanamide], the figures for the IC50 at CSNK1D and at CSNK1A1 were 3.6 nM and 1.6 nM, respectively.

Consider `CC(C(=O)Nc1cc(-c2[nH]c3c(CC(F)(F)F)cn(C)c(=O)c3c2-c2ccc(F)cc2)ccn1)c1ccc(F)cc1` (single isomer, unassigned; (+)) [Example 24, (+)-2-(4-fluorophenyl)-N-{4-[3-(4-fluorophenyl)-5-methyl-4-oxo-7-(2,2,2-trifluoroethyl)-4,5-dihydro-1H-pyrrolo[3,2-c]pyridin-2-yl]pyridin-2-yl}propanamide], for which the IC50 on CSNK1D was 4 nM; on CSNK1A1, 4.5 nM.

On to `CN1CCc2[nH]c(-c3ccnc(NC(=O)Cc4ccc(F)cc4)c3)c(-c3cccnc3)c2C1=O` [Example 12, 2-(4-fluorophenyl)-N-{4-[5-methyl-4-oxo-3-(pyridin-3-yl)-4,5,6,7-tetrahydro-1H-pyrrolo[3,2-c]pyridin-2-yl]pyridin-2-yl}acetamide], for which the IC50 amounted to 13 nM at CSNK1D and 10 nM on CSNK1A1.

In the case of `CC(C(=O)Nc1cc(-c2[nH]c3c(CC(F)(F)F)cn(C)c(=O)c3c2-c2ccccc2)ccn1)c1ccc(F)cc1` (single isomer, unassigned; (-)) [Example 16, (−)-2-(4-fluorophenyl)-N-{4-[5-methyl-4-oxo-3-phenyl-7-(2,2,2-trifluoroethyl)-4,5-dihydro-1H-pyrrolo[3,2-c]pyridin-2-yl]pyridin-2-yl}propanamide], the IC50 at CSNK1D was determined as 4.4 nM; on CSNK1A1, 7.7 nM.

For `CC1(C)CNC(=O)c2c1[nH]c(-c1ccnc(NC(=O)Cc3ccc(F)cc3)c1)c2-c1ccccc1` [Example 42, N-[4-(7,7-dimethyl-4-oxo-3-phenyl-4,5,6,7-tetrahydro-1H-pyrrolo[3,2-c]pyridin-2-yl)pyridin-2-yl]-2-(4-fluorophenyl)acetamide], the figures for the IC50 on CSNK1D and on CSNK1A1 were 2.1 nM and 1.2 nM, respectively.

In the case of `CC(C(=O)Nc1cc(-c2[nH]c3c(c2-c2ccccc2)C(=O)NCC3(C)C)ccn1)c1ccc(F)cc1` (single isomer, unassigned) [Example 47, N-[4-(7,7-dimethyl-4-oxo-3-phenyl-4,5,6,7-tetrahydro-1H-pyrrolo[3,2-c]pyridin-2-yl)pyridin-2-yl]-2-(4-fluorophenyl)propanamide], the IC50 is 9.6 nM on CSNK1D and 13 nM at CSNK1A1.

With `CN1CC(CC(F)(F)F)c2[nH]c(-c3ccnc(NC(=O)C(CC(F)F)c4ccc(F)cc4)c3)c(-c3ccc(F)cc3)c2C1=O` (stereo not drawn) [Example 25, 4,4-difluoro-2-(4-fluorophenyl)-N-{4-[3-(4-fluorophenyl)-5-methyl-4-oxo-7-(2,2,2-trifluoroethyl)-4,5,6,7-tetrahydro-1H-pyrrolo[3,2-c]pyridin-2-yl]pyridin-2-yl}butanamide], the figures for the IC50 at CSNK1D and at CSNK1A1 were 5 nM and 6.4 nM, respectively.

`Cc1cn(C)c(=O)c2c(-c3ccc(F)cc3)c(-c3ccnc(NC(=O)C(C)c4ccc(F)cc4)c3)[nH]c12` (single isomer, unassigned; (+)) [Example 32, (+)-2-(4-fluorophenyl)-N-{4-[3-(4-fluorophenyl)-5,7-dimethyl-4-oxo-4,5-dihydro-1H-pyrrolo[3,2-c]pyridin-2-yl]pyridin-2-yl}propanamide]: the IC50 on CSNK1D amounted to 3.6 nM; on CSNK1A1 it was 4.4 nM.

Regarding `CN1CC(CC2CC2)c2[nH]c(-c3ccnc(NC(=O)C(CC(F)F)c4ccc(F)cc4)c3)c(-c3ccccc3)c2C1=O` (stereo not drawn) [Example 59, N-{4-[7-(cyclopropylmethyl)-5-methyl-4-oxo-3-phenyl-4,5,6,7-tetrahydro-1H-pyrrolo[3,2-c]pyridin-2-yl]pyridin-2-yl}-4,4-difluoro-2-(4-fluorophenyl)butanamide], the IC50 on CSNK1D is 3.6 nM; at CSNK1A1 it was 4.9 nM.

Take `Cn1cc(CC2CC2)c2[nH]c(-c3ccnc(NC(=O)Cc4ccc(F)cc4)c3)c(-c3ccccc3)c2c1=O` [Example 56, N-{4-[7-(cyclopropylmethyl)-5-methyl-4-oxo-3-phenyl-4,5-dihydro-1H-pyrrolo[3,2-c]pyridin-2-yl]pyridin-2-yl}-2-(4-fluorophenyl)acetamide]: the IC50 is 4.8 nM at CSNK1D and 4.4 nM on CSNK1A1.

For the origin of these results see patent US20230322767A1, “ARYL SUBSTITUTED PYRROLO-PYRIDINONES AND THERAPEUTIC USES THEREOF” (Bayer Aktiengesellschaft, priority 2020, published 2023).
